Results as given in patent US20090286744A1, “Treatment of asthma” (IMMUNEREGEN BIOSCINECES INC., priority 2005, published 2009).
Ends that are not written are not given here.

System: PARP-1
Assay: Immunoblotting for PARP-1 in alveolar macrophages pre-treated with JP-8 and substance P
Format: cell-based
Settings: PAM pre-treated with 8 ug/ml of JP-8 and substance P; 24 hours; immunoblotting (FIG. 1)
Experimental: Alveolar macrophages (PAM) were pre-treated with 8 ug/ml of JP-8 and substance P, or left untreated. After 24 hours, protein was extracted from the PAM and analyzed by immunoblotting for PARP-1, procaspase-3, p53, and GAPDH.

Substance: Substance P (RPKPQQFFGLM-NH2; listed as Homo sapiens)
- PARP-1 expression in alveolar macrophages: causes degradation of PARP-1 expression in alveolar macrophages in a dose-dependent manner
